Active and inactive are the calls of the source. No cut-off for these calls is given here.
Legend:
Rattus norvegicus [1] = assay: The compound was evaluated in vivo for the 5-HTP accumulation at corpus striatum; format: functional
Rattus norvegicus [2] = assay: The compound was evaluated in vivo for the 5-HTP accumulation at hemispheres in reserpine pretreated rats; format: functional
Rattus norvegicus [3] = assay: The compound was evaluated in vivo for the DOPA accumulation at corpus striatum; partial effect at highest dose of 45 umol/kg; format: functional, organism-based
Rattus norvegicus [4] = assay: The compound was evaluated in vivo for the 5-HTP accumulation at limbic regions; format: functional; conditions: Limbic system
Rattus norvegicus [5] = assay: The compound was evaluated in vivo for the DOPA accumulation at hemispheres in reserpine pretreated rats; partial effect at highest dose of 45 umol/kg; format: functional, organism-based
Rattus norvegicus [6] = assay: The compound was evaluated in vivo for the DOPA accumulation at limbic regions; partial effect at highest dose of 45 umol/kg; format: functional, organism-based; conditions: Limbic system
D(4) dopamine receptor [7] = target: T1, D(4) dopamine receptor (Homo sapiens, UniProt P21917); assay: Tested in vitro for the inhibition of [3H]spiperone binding to Dopamine receptor D4, expressed in cloned CHO cells; format: cell-based
T1 sequence (P21917 whole entry): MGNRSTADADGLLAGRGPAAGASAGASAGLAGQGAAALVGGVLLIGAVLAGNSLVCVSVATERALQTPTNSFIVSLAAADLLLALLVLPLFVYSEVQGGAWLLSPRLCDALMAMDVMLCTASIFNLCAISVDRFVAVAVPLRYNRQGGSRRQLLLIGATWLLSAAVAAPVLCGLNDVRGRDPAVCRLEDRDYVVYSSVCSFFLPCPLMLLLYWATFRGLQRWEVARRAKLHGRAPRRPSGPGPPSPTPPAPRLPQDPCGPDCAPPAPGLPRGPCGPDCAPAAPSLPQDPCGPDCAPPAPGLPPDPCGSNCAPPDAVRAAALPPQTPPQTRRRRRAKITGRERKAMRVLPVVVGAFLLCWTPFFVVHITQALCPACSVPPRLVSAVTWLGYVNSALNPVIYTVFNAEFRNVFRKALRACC

Rattus norvegicus [8] = assay: The compound was evaluated in vivo for the DOPA accumulation at hemispheres in reserpine pretreated rats at 13.5 umol/kg; inactive in highest dose tested; format: functional, organism-based
[9] = target: T2, 5-hydroxytryptamine receptor 1A (Homo sapiens, UniProt P08908); assay: Tested in vitro for the inhibition of [3H]8-OH-DPAT binding to 5-hydroxytryptamine 1A receptor, expressed in cloned CHO cells.; format: cell-based
T2 sequence (P08908 whole entry): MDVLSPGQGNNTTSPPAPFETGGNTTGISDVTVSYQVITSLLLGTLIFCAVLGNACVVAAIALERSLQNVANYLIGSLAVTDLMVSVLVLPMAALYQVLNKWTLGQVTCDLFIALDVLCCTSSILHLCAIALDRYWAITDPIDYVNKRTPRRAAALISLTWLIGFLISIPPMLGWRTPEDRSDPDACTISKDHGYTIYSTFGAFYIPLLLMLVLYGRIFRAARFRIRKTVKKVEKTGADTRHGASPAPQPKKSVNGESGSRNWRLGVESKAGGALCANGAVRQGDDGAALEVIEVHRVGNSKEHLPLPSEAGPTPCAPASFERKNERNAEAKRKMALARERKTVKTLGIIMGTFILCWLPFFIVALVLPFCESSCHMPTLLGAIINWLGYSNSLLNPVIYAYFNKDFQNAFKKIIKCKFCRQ

Rattus norvegicus [10] = assay: The compound was evaluated in vivo for the 5-HTP accumulation at limbic regions at 13.5 umol/kg; inactive in highest dose tested; format: functional, organism-based; conditions: Limbic system
Rattus norvegicus [11] = assay: The compound was evaluated in vivo for the DOPA accumulation at corpus striatum; format: functional
Rattus norvegicus [12] = assay: The compound was evaluated in vivo for the 5-HTP accumulation at hemispheres in reserpine pretreated rats at 13.5 umol/kg; inactive in highest dose tested; format: functional, organism-based
Rattus norvegicus [13] = assay: The compound was evaluated in vivo for the 5-HTP accumulation at corpus striatum at 13.5 umol/kg; inactive in highest dose tested; format: functional, organism-based
Rattus norvegicus [14] = assay: The compound was evaluated in vivo for the DOPA accumulation at limbic regions; format: functional; conditions: Limbic system
Rattus norvegicus [15] = assay: The compound was evaluated in vivo for the DOPA accumulation at corpus striatum in non-pretreated rats at 50 umol/kg dose; format: functional
Rattus norvegicus [16] = assay: The compound was evaluated in vivo for the locomotpr activity in non-pretreated rats at 50 uM/kg dose; format: functional
D(2) dopamine receptor = D(2) dopamine receptor (Rattus norvegicus, UniProt P61169); assay: Tested in vitro for the inhibition of [3H]raclopride binding to Dopamine receptor D2 in rat striatum; format: tissue-based
Chain of D(2) dopamine receptor (P61169 whole entry): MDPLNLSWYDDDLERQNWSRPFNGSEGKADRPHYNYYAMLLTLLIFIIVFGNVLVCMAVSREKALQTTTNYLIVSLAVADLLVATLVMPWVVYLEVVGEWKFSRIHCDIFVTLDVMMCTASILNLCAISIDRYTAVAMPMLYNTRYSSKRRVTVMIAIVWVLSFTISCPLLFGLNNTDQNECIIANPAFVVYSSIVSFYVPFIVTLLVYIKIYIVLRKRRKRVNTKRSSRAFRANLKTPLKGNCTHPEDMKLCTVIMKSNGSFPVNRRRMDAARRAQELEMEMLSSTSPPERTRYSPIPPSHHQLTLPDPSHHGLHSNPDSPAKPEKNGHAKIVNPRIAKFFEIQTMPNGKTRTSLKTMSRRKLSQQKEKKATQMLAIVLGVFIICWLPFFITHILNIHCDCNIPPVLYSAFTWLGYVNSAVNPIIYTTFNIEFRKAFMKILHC

[17] = target: Serotonin 2 (5-HT2) receptor (Homo sapiens, UniProt P41595+P28223+P28335); assay: Tested in vitro for the inhibition of [3H]ketanserin binding to 5-hydroxytryptamine 2 receptor, expressed in cloned CHO cells.; format: cell-based
Rattus norvegicus [18] = assay: The compound was evaluated in vivo for the DOPA accumulation at limbic regions at 50 umol/kg dose; format: functional, Limbic system
D(3) dopamine receptor = D(3) dopamine receptor (Homo sapiens, UniProt P35462); assay: biochemical
Chain of D(3) dopamine receptor (P35462 whole entry): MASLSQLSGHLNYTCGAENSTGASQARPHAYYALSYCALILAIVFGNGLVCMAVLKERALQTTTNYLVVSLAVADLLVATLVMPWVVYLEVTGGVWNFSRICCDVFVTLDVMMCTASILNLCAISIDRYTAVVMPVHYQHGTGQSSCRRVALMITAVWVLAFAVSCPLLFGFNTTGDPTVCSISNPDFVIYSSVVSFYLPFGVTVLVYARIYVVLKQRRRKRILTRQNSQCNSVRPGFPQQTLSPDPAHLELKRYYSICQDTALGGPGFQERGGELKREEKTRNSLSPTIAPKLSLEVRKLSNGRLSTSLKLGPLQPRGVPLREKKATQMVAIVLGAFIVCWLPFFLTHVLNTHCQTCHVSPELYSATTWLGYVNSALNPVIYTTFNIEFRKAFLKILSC
Description: Tested in vitro for the inhibition of [3H]U-86170 binding to Dopamine receptor D3, expressed in cloned CHO cells

Rattus norvegicus [19] = assay: The compound was evaluated in vivo for the DOPA accumulation at hemispheres in reserpine pretreated rats at 50 umol/kg; Inactive; format: functional, organism-based
[20] = target: T3, D(4) dopamine receptor (Homo sapiens) (UniProt P21917); assay: (§1) Tested in vitro for the inhibition of [3H]spiperone binding to Dopamine receptor D4, expressed in cloned CHO cells; Inactive; format: cell-based
T3 sequence (whole entry): T1 sequence (P21917 whole entry)

Rattus norvegicus [21] = assay: The compound was evaluated in vivo for the DOPA accumulation at hemispheres in reserpine pretreated rats at 50 umol/kg; inactive in the highest dose tested; format: functional, organism-based
Rattus norvegicus [22] = assay: The compound was evaluated in vivo for the DOPA accumulation at limbic regions at 50 umol/kg; Partial effects in the highest dose tested; format: functional, organism-based; conditions: Limbic system
D(4) dopamine receptor [23] = target: T1, D(4) dopamine receptor; assay: as §1; format: cell-based
Rattus norvegicus [24] = assay: The compound was evaluated in vivo for the DOPA accumulation at corpus striatum at 50 umol/kg; Partial effects in the highest dose tested; format: functional, organism-based
Rattus norvegicus [25] = assay: The compound was evaluated in vivo for the DOPA accumulation at corpus striatum at 12.5 umol/kg; Partial effects in the highest dose tested; format: functional, organism-based
Rattus norvegicus [26] = assay: The compound was evaluated in vivo for the DOPA accumulation at limbic regions at 12.5 umol/kg; Inactive; format: functional, organism-based; conditions: Limbic system
Rattus norvegicus [27] = assay: The compound was evaluated in vivo for the DOPA accumulation at hemispheres in reserpine pretreated rats at 12.5 umol/kg; Inactive; format: functional, organism-based
Rattus norvegicus [28] = assay: The compound was evaluated in vivo for the locomotor activity in non-pretreated rats at 50 uM/kg dose; format: functional
Rattus norvegicus [29] = assay: The compound was evaluated in vivo for the 5-HTP accumulation at limbic regions at 50 umol/kg; Inactive; format: functional, organism-based; conditions: Limbic system
Rattus norvegicus [30] = assay: The compound was evaluated in vivo for the 5-HTP accumulation at corpus striatum at 50 umol/kg; Inactive; format: functional, organism-based
Rattus norvegicus [31] = assay: The compound was evaluated in vivo for the 5-HTP accumulation at hemispheres in reserpine pretreated rats at 50 umol/kg; Inactive; format: functional, organism-based
Rattus norvegicus [32] = assay: The compound was evaluated in vivo for the 5-HTP accumulation at corpus striatum at 11 umol/kg; inactive in highest dose tested; format: functional, organism-based
Rattus norvegicus [33] = assay: The compound was evaluated in vivo for the DOPA accumulation at hemispheres in reserpine pretreated rats at 11 umol/kg; inactive in highest dose tested; format: functional, organism-based
Rattus norvegicus [34] = assay: The compound was evaluated in vivo for the 5-HTP accumulation at hemispheres in reserpine pretreated rats at 11 umol/kg; inactive in highest dose tested; format: functional, organism-based
Rattus norvegicus [35] = assay: The compound was evaluated in vivo for the 5-HTP accumulation at limbic regions at 11 umol/kg; inactive in highest dose tested; format: functional, organism-based; conditions: Limbic system

SMILES | ED50 (Rattus norvegicus [1]) [µmol/kg] | ED50 (Rattus norvegicus [2]) [µmol/kg] | ED50 (Rattus norvegicus [4]) [µmol/kg] | Ki (D(4) dopamine receptor [7]) [nM] | Ki [9] [nM] | ED50 (Rattus norvegicus [11]) [µmol/kg] | ED50 (Rattus norvegicus [14]) [µmol/kg] | Ki (D(2) dopamine receptor) [nM] | Ki [17] [nM] | Ki (D(3) dopamine receptor) [nM] | also measured
CCCN(CCC)C1CCc2cccc(O)c2C1 (centres undefined) [8-OH-DPAT] | 0.063 | 0.052 | 0.052 | > 1520 | – | – | – | – | – | – | Activity (Rattus norvegicus [3]): Weak activity; Activity (Rattus norvegicus [5]): Weak activity; Activity (Rattus norvegicus [6]): Weak activity
CCCN(CCC)C1CCc2c(O)cccc2C1 (centres undefined) [5-OH-DPAT] | – | – | – | – | 344 | 0.009 | 0.011 | – | – | – | ED50 (Rattus norvegicus [8]): inactive; ED50 (Rattus norvegicus [10]): inactive; ED50 (Rattus norvegicus [12]): inactive; ED50 (Rattus norvegicus [13]): inactive
CCCN(CCC)[C@@H]1CCc2c(ccc3ccoc23)[C@@H]1C | – | – | – | 55 | 120 | – | – | 46 | 70 | 27 | Saline control (Rattus norvegicus [15]): 161%; Saline control (Rattus norvegicus [16]): 107%; Saline control (Rattus norvegicus [18]): 121%
CCCN(CCC)C1CCc2ccc3occc3c2C1 (centres undefined) | 2.12 | 6.08 | 4.56 | – | 7.8 | 13.1 | 4.47 | 64 | – | 45 | ED50 (Rattus norvegicus [19]): inactive; ED50 [20]: inactive
CCCN1CC[C@H]2c3c(O)cccc3CC[C@H]21 | – | – | – | > 4070 | – | – | – | 769 | 1637 | > 4760 | –
CCCN(CCC)C1CCc2ccc3ccoc3c2C1 (centres undefined) | 3.18 | 2.26 | 3.24 | – | 6.1 | – | – | 32 | – | 16.2 | Activity (Rattus norvegicus [21]): inactive; Activity (Rattus norvegicus [22]): Weak activity; Ki (D(4) dopamine receptor [23]): Not Active; Activity (Rattus norvegicus [24]): Weak activity
CCCN1CC[C@H]2c3c(ccc4ccoc34)CC[C@H]21 | 0.4 | 0.66 | 0.41 | > 4070 | 3.9 | – | – | 150 | 146 | 323 | Activity (Rattus norvegicus [25]): Weak activity; ED50 (Rattus norvegicus [26]): inactive; ED50 (Rattus norvegicus [27]): inactive
CCCN(CCC)[C@@H]1CCc2c(OC)cccc2[C@@H]1C | – | – | – | – | – | – | – | 15 | – | – | Saline control (Rattus norvegicus [15]): 370%; Saline control (Rattus norvegicus [28]): 70%; Saline control (Rattus norvegicus [18]): 245%
CCCN(CCC)C1CCc2c(ccc3ccoc23)C1 (centres undefined) | – | – | – | – | 210 | 0.98 | 0.74 | 18 | – | 56 | ED50 (Rattus norvegicus [29]): inactive; ED50 (Rattus norvegicus [19]): inactive; ED50 [20]: inactive; ED50 (Rattus norvegicus [30]): inactive; ED50 (Rattus norvegicus [31]): inactive
CCCN(CCC)C1CCc2ccc(O)cc2C1 (centres undefined) | – | – | – | 148 | 47 | 0.03 | 0.027 | – | – | – | ED50 (Rattus norvegicus [32]): inactive; ED50 (Rattus norvegicus [33]): inactive; ED50 (Rattus norvegicus [34]): inactive; ED50 (Rattus norvegicus [35]): inactive

— ChEMBL document CHEMBL1129215, “(Dipropylamino)-tetrahydronaphthofurans: centrally acting serotonin agonists and dopamine agonists-antagonists” (Bioorg Med Chem Lett, 1997)
